Assay results taken from US6747029B2, “Dopamine D4 receptor antagonists as treatment for attention deficit-hyperactivity disorder” (priority 2001, dated 2004).

Legend:
[1] = test system: D4 receptors; assay: Autoradiography of D4 receptor binding in forebrain after neonatal lesion; format: in vivo, rat
Method: (§1) On postnatal day (PD) 5, male Sprague-Dawley rat pups randomly received intracisternal injections of vehicle (“sham-lesioned”) (0.9% NaCl containing 0.1% ascorbic acid) or 6-OHDA hydrobromide (“lesioned”) (100 μg free base) into the brain under hypothermal anesthesia at 45 min after pretreatment with desipramine hydrochloride (20 mg/kg free base) injected subcutaneously (s.c.). Lesions of DA in forebrain tissue sections were verified by quantifying DA transporter binding with [^3H]GBR-12935 (1-[2-(diphenylmethoxy)ethyl]-4-(3-phenylpropyl)piperazine) by computed autoradiography at the completion of experiments as an indication of loss of DA nerve terminals in forebrain.
(§2) Rats were sacrificed 2 days after the last behavioral testing for autoradiographic analysis of DA receptor density. Frozen coronal brain sections (10 μm) were prepared in a cryostat at −17° C., thaw-mounted on gelatin-coated microscopic slides and stored at −80° C. until quantitative autoradiographic assays. D2-like receptor binding was assayed with 1 nM [^3H]nemonapride in the presence of 0.5 μM 1,3-ditolylguanidine and 0.1 μM pindolol to block 5-HT1A sites in the brain tissue. Nonspecific binding was determined with 10 μM […]. […] Nonspecific binding was determined with 1 μM cis-flupenthixol.

[2] = test system: D2-like receptors; assay: Autoradiography of D2-like receptor binding in forebrain after neonatal lesion; format: in vivo, rat
Method: as §1, §2

[3] = test system: 6-OHDA-lesioned rats; assay: Locomotor activity of juvenile rats with neonatal 6-OHDA lesions (ADHD model); format: in vivo, Sprague-Dawley rat; conditions: for hyperactivity in lesioned rats with psychostimulants: daytime 10:00-16:00 h, dose not given; for effect on lesion-induced hyperactivity (dose dependence): i.p., low and high dosage; for effect on lesion-induced hyperactivity (dose dependence) / motor activity in lesioned rats: daytime
Excerpt: For example, behavioral studies of juvenile rats with neonatal 6-hydroxydopamine (6-OHDA) lesions, as is described below, can be used to screen drugs in order to identify candidate drugs for use in the method of the invention. […] As a result, juvenile rats with neonatal 6-OHDA lesions are accepted as a laboratory model for ADHD.
On postnatal day (PD) 5, male Sprague-Dawley rat pups randomly received intracisternal injections of vehicle (“sham-lesioned”) (0.9% NaCl containing 0.1% ascorbic acid) or 6-OHDA hydrobromide (“lesioned”) (100 μg free base) into the brain under hypothermal anesthesia at 45 min after pretreatment with desipramine hydrochloride (20 mg/kg free base) injected subcutaneously (s.c.).
Behavioral effects of neonatal lesions were examined by monitoring locomotor activity at PD 21-30 in a novel environment to provoke exploratory activity. Rats were maintained under a 12-h artificial daylight/dark schedule (on, 07:00-19:00 h), with free access to tap-water and standard rat chow. Motor activity was automatically monitored for 90 min between PD 21 and 30, with a computer-controlled photobeam activity monitoring system (San Diego Instruments, San Diego, Calif.). […] […] Sessions were separated by 48 hours. […] Breaking of consecutive photobeams was scored as locomotion.

[4] = test system: sham-lesioned rats; assay: Locomotor activity of sham-lesioned control rats; format: in vivo, Sprague-Dawley rat; conditions: daytime 10:00-16:00 h
Method: as §1
Behavioral effects of neonatal lesions were examined by monitoring locomotor activity at PD 21-30 in a novel environment to provoke exploratory activity. Rats were maintained under a 12-h artificial daylight/dark schedule (on, 07:00-19:00 h), with free access to tap-water and standard rat chow. Motor activity was automatically monitored for 90 min between PD 21 and 30, with a computer-controlled photobeam activity monitoring system (San Diego Instruments, San Diego, Calif.). […] Breaking of consecutive photobeams was scored as locomotion.

[5] = target: T1, D4 receptors (Homo sapiens, UniProt P21917); conditions: cited from earlier work
T1 sequence (P21917 1-419): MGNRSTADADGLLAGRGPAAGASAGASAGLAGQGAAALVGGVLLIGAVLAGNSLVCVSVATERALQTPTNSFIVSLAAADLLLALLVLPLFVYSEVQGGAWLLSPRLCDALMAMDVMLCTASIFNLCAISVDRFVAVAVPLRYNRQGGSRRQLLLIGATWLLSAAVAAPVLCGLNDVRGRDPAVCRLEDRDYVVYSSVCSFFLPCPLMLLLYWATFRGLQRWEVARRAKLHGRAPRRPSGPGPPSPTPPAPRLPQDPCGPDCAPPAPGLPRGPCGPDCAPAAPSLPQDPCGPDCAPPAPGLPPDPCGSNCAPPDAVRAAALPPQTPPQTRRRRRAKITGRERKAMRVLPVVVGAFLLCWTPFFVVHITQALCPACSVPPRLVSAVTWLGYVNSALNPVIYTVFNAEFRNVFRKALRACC

[6] = test system: non-dopaminergic receptors; conditions: except 5-HT1A and 5-HT2A; cited from earlier work

Structure (SMILES): NCCc1cc(O)c(O)cc1O [6-OHDA, 6-hydroxydopamine]
- increase of D4 receptor binding versus sham ([1]; lateral CPu): 40.3%
- increase of D4 receptor binding versus sham ([1]; medial CPu): 35.2%
- increase of D2-like receptors versus sham ([2]; lateral CPu): 16.6%
- increase of D2-like receptors versus sham ([2]; medial CPu): 18.3%

Structure (SMILES): CC(N)Cc1ccccc1 (single isomer, unassigned; (+)) [(+)-amphetamine]
- hyperactivity in lesioned rats with psychostimulants [3]: reduced
- motor activity in sham-lesioned controls [4]: greatly increased motor activity

Structure (SMILES): Fc1ccc2[nH]c(CN3CCN(c4ccccn4)CC3)cc2c1 [CP-226,269]
- effect on lesion-induced hyperactivity (dose dependence) [3]: dose-dependent exacerbation

Structure (SMILES): Clc1ccc(N2CCN(Cc3c[nH]c4ncccc34)CC2)cc1 [L-745,870, 3-{[4-(4-chlorophenyl)piperazin-1-yl]methyl}-1H-pyrrolo[2,3-b]pyridine]
- motor activity in lesioned rats ([3]; 15 mg/kg i.p.): reversed to a level similar to that found in control rats
- selectivity and kind of action at D4 receptors [5]: highly selective fill antagonist

Structure (SMILES): CC[C@@H](CO)NC(=O)[C@@H]1C=C2c3cccc4c3c(cn4C)C[C@H]2N(C)C1 [methysergide]
- effect of methysergide alone on lesion-induced hyperactivity ([3]; 2 mg/kg i.p., 30 min prior to testing): failed to affect
- effect of methysergide pretreatment on motor responses to subsequent CP-293,019 ([3]; methysergide 2 mg/kg i.p. 30 min before CP-293,019 30 mg/kg): did not affect

Structure (SMILES): Fc1ccc(OCC2CCC3CN(c4ncc(F)cn4)CCN3C2)cc1 (stereo not drawn) [CP-293,019, 7R,S-(4-fluoro-phenoxymethyl)-2-(5-fluoro-pyrimidin-2-yl)-octahydropyrido[1,2-α]pyrazine]
- motor activity in lesioned rats ([3]; 30 mg/kg i.p., 90 min session): indistinguishable from sham-lesioned controls
- nocturnal hyperactivity in lesioned rats ([3]; 30 mg/kg, nocturnal 22:00-04:00 h): completely reversed
- inhibition at 10 mg/kg ([3]; Rattus norvegicus, ip, read-out: inhibition of motor activity in lesioned rats): ~40%
- effect on lesion-induced hyperactivity (dose dependence) [3]: dose-dependent mitigation
- affinity for non-dopaminergic receptors [6]: negligible affinity
- potency at D4 receptors relative to D2 or other DA receptors [5]: more than 1000 times
- selectivity and kind of action at D4 receptors [5]: highly D4 receptor-selective, full antagonist

Structure (SMILES): COC(=O)C(c1ccccc1)C1CCCCN1 (racemic) [(±)-methylphenidate]
- hyperactivity in lesioned rats with psychostimulants [3]: reduced
- motor activity in sham-lesioned controls [4]: greatly increased motor activity
